Where “and” joins values, the source holds several entries; their conditions need not be identical. Identical values can stand only once. Like-named read-outs stand apart in the source and are kept apart here.
Tests used:
[1] = test system: human KARPAS-299 lympoma cell line; test: Antiproliferative action in KARPAS-299 lymphoma cell line; assay type: cell-based; settings: KARPAS-299 cell line, same methodology as BaF3-NPM-ALK
[2] = test system: human NPM-ALK overexpressing murine BaF3 cells (BaF3-NPM-ALK); test: Growth inhibition of BaF3-NPM-ALK cells (Yopro staining); assay type: cell-based; settings: Mus musculus, 48 h, two days incubation
From the text: The expression of NPM-ALK is achieved by transfecting the BaF3 cell line with an expression vector pCIneo™ (Promega Corp., Madison Wis., USA ) coding for NPM-ALK and subsequent selection of G418 resistant cells. Non-transfected BaF3 cells depend on IL-3 for cell survival. In contrast NPM-ALK expressing BaF3 cells (named BaF3-NPM-ALK) can proliferate in the absence of IL-3 because they obtain proliferative signal through NPM-ALK kinase. Putative inhibitors of the NPM-ALK kinase therefore abolish the growth signal and result in antiproliferaflve activity. The antiproliferative activity of putative inhibitors of the NPM-ALK kinase can however be overcome by addition of IL-3 which provides growth signals through an NPM-ALK independent mechanism. [for an analogous cell system using FLT3 kinase see E Weisberg et al. Cancer Cell; 1, 433-443 (2002). The inhibitory activity of the compounds of formula I is determined, briefly, as follows: BaF3-NPM-ALK cells (15 000/microtitre plate well) are transferred to 96-well microtitre plates. The test compounds [dissolved in dimethyl sulfoxide (DMSO)] are added in a series of concentrations (dilution series) in such a manner that the final concentration of DMSO is not greater than 1% (v/v). After the addition, the plates are incubated for two days during which the control cultures without test compound are able to undergo two cell-division cycles. The growth of the BaF3-NPM-ALK cells is measured by means of Yopro™ staining (T ldziorek et al. J. Immunol. Methods; 185:249-58 [1995]): 25 μl of lysis buffer consisting of 20 mM sodium citrate, pH 4.0, 26.8 mM sodium chloride, 0.4% NP40, 20 mM EDTA and […] to each well. Cell lysis was completed within 60 min at room temperature and total amount of Yopro bound to DNA was determined by measurement using the Cytofluor II 96-well reader (PerSeptive Biosystems) with the following settings: Excitation (nm) 485/20 and Emission (nm) 530/25.
IC50 values are determined by a computer-aided system using the formula: ICr50=[(ABStest−ABSstart)/(ABScontrol−ABSstart)]×100.

[3] = target: T1, recombinant kinase domain of the ALK (Homo sapiens, UniProt Q9UM73); test: Inhibition of ALK tyrosine kinase activity; assay type: biochemical; settings: each compound tested twice, once each with two different preparations of ALK
T1 construct: using the recombinant kinase domain of the ALK
Method: The inhibition of ALK tyrosine kinase activity is measured using known methods, for example using the recombinant kinase domain of the ALK in analogy to the VEGF-R kinase assay described in J. Wood et al. Cancer Res. 60, 2178-2189 (2000). The table below reports the IC50 values for several compounds of the present invention. Each compound is tested twice, once each with two different preparations of ALK.

[4] = with IL3, read-out: BaF3 NPM-ALK with IL3 IC50
[5] = without IL3, read-out: BaF3 NPM-ALK without IL3 IC50

T1 sequence (Q9UM73 1116-1392 limits assumed): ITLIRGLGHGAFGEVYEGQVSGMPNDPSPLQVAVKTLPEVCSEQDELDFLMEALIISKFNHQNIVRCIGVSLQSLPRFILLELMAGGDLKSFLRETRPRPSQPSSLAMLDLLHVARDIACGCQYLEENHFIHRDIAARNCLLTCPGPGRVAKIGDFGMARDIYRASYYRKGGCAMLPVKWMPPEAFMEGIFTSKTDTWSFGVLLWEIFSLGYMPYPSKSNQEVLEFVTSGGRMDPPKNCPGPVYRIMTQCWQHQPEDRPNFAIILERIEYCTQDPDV

IC50 [1] | IC50 [2, 4] | IC50 [2, 5] | IC50 [3] | melting point | Structure (SMILES)
330 nM | 2600 nM | 560 nM | 46 nM and 90 nM | – | CCCNS(=O)(=O)c1ccccc1Nc1ccnc(Nc2cc(OC)c(OC)c(OC)c2)n1 [Ex. 58]
150 nM | 2700 nM | 410 nM | 180 nM and 86 nM | – | COc1cc(Nc2nccc(Nc3ccccc3S(=O)(=O)N(C)C)n2)cc(OC)c1OC [Ex. 56]
– | – | – | – | 72 to 75 °C | COc1cc(Nc2nccc(Nc3cccc(C)c3S(N)(=O)=O)n2)cc(OC)c1OC [Example 3, 2-methyl-6-[2-(3,4,5-Trimethoxy-phenylamino)-pyrimidin-4-ylamino]-benzenesulfonamide]
270 nM | 1400 nM | 550 nM | 48 nM and 83 nM | – | CN(C)S(=O)(=O)c1ccccc1Nc1ccnc(Nc2cccc(OCCn3ccnc3)c2)n1 [Ex. 48]

Source: patent US20070105839A1, “2, 4-Di (phenylamino) pyrimidines useful in the treatment of proliferative disorders” (priority 2003, published 2007)
